Laboratory results reported in patent US20120035180A1, “PHARMACEUTICAL COMPOSITION FOR TREATING CANCER COMPRISING CHLORIN E6-FOLIC ACID CONJUGATE COMPOUND AND CHITOSAN” (priority 2009, published 2012).

Tests used:
Hela cells = experiment: Competition assay with exogenous folic acid in Hela cells; assay type: cell-based; settings: 4 μM/l folic acid, 24 hours
From the text: Then, the sample was centrifuged, the supernatant was taken, and the pellet was rewashed with cooled Hank's solution. The obtained pellet was again transferred into Hank's solution.

HeLa tumor cells = experiment: Cytotoxicity (antiproliferative assay) in the absence of light exposure; assay type: cell-based; settings: 24 hr incubation
Method: Cytotoxicity was analyzed, considering the intensity of proliferative processes in cells, photosensitizer concentration, and dose of optical power. For each point, 3 flasks with cell monolayer were used.
The monolayer culture of HeLa tumor cells was chosen and used as the cell.
The culture of HeLa tumor cells was grown in nutrient medium 199 or in nutrient medium containing hemohydrolyzate supplemented with 10% fetal bovine serum and […] of kanamycin.
On day 4 after the cell culture was inoculated in the flasks (100,000 cells per 2.0 ml of nutrient medium), the photosensitizer was added at a concentration of 1, 2.5, 5.0, 10.0, 20.0, or 30.0 mg/ml.
Flasks with light-protective cover (dark cytotoxicity) were incubated at 37.5° C. for 1 hour. The cells were washed with Hank's solution 4 times. 2.0 ml of fresh nutrient medium were added, and the cells were irradiated at the temperature of melting ice for 5, 10, 15 or 20 mins by the light flux of a “METALAZ” laser medical device (wavelength: 627.8 nm, 578.2 or 510.6 nm) or “LD 680-2000” (wavelength: 670-690 nm), depending on the wavelength of maximum spectral absorption of the studied photosensitizer, at a dose of 40 J/cm^2. After 20-24 hours, the number of tumor cell was counted in Goriaev's chamber.

[1] = Spectral and fluorescent parameters of chlorin e6 conjugate in different systems; assay type: physicochemical
Method: Pigment-protein complexes have been formed by adding to the solution of human serum albumin (HAS) a specific amount of photosensitizer dissolved in the same buffer. […] Similarly, the photosensitizer was included in detergent micelle (Triton X-100, C=10^−3M).
The electronic absorption spectra of the subject solution were recorded on Specord UV-Vis. The fluorescence spectra and value of degree of fluorescence polarization (P) were recorded on an automatic spectrofluorimeter (Institute of Physics). Life time of photosensitizer fluorescence (ts) was estimated using an impulse fluorometer operating in the mode of photons counting.
The main feature of the absorption spectrum is intensive (ε=4.8 10^4 M^−1cm^−1) Qx (0-0) band at 660 nm, which falls into the spectral window of the majority of biological tissues.
Complex formation of chlorin e6 conjugate, and HSA, liposomes or detergent micelles leads to bathochromic shift in the absorption and fluorescence spectra of pigment. However, an increase in fluorescence photoresponse (B) was observed, which correlates with the growth of life time (ts) without changing of the Kravec integral value.

[2] = Generation of singlet oxygen (luminescence at 1270 nm); assay type: physicochemical; settings: air saturated buffer solution, room temperature
Method: Based on new Hamamatsu FEU with InP/InGaAsP semi-conductor photocathodes, a highly sensitive laser fluorometer for registration of luminescence signals in the range of 950-1400 nm with nanosecond time resolution was used.
Photoresponse of this process (φΔ) was measured by a relative method through integral intensity of singlet oxygen luminescence at a wavelength of 1270 nm. Excitation was conducted at a wavelength of 531 nm (pulse energy 4 microJ, frequency 1kHz). Tests were made in air saturated buffer solutions at room temperature. […] The φΔ in D2O was considered as 0.7.
To analyze kinetic curves of singlet oxygen luminescence, the following function was used:
wherein A is a coefficient depending on initial concentrations of interacted reagents, and k1 and k2 are constants of luminescence signal increase and extinction, respectively.
In the case when the deactivation rate constant Kτ of the photosensitizer triplet state exceeds the deactivation rate constant KΔ of the molecular oxygen […] state, the constant of increase k1 corresponds to Kτ, and constant of extinction k2 corresponds to KΔ. In the case of Kτ<KΔ, inversion of the kinetics of singlet oxygen luminescence occurs. In this case, k2=Kτ and k1=KΔ. […] Thus, based on kinetic data, the life times of singlet oxygen and triplet state can be calculated.

HeLa cell culture = experiment: Phototoxicity (photodynamic activity), 3.5 h incubation, 3.3 joule/cm^2; assay type: cell-based; set-up: number of HELA cells (relative to the control): unit not given here; settings: for number of HELA cells (relative to the control): incubation 3.5 hours
Method: To examine the photodynamic effects of a photosensitizer on a HeLa cell culture, the photosensitizer solution was added to the nutrient media at a final concentration of 0.1, 0.5, 1.0, 5.0 or 10 mcg/ml on day 3 after transplanting the cell culture into flasks. The flasks were wrapped with a light protecting cover, and incubated at 37° C. for 3.5 hours. Then, the cells were washed with Hank's solution, and exposed on ice by a laser medical device “LD 680-2000” (wavelength: 670-690 nm) at a dose of 3.3 joule/cm^2. After 20-24 hours, the available cell monolayer was dispersed using a 0.02%-Versene solution, and the number of tumor cells was calculated in Goriaev's chamber. For each point, 3 flasks were used.

Substance: [γ-(6-aminohexyl)folic acid]-chlorin e6 [chlorin e6 conjugate]
- effect of free folic acid on uptake in Hela cells (Hela cells): significantly reduced
- cell survival rates (HeLa tumor cells): about 90%
- 1^00fl ([1]; Dimethyl sulfoxide): 672 nm
- absorption maximum wavelength (Qx 0-0 band) ([1]; Dimethyl sulfoxide): 661 Nm
- 1^00fl ([1]; H2O, pH 8.1): 664 nm
- absorption maximum wavelength (Qx 0-0 band) ([1]; H2O, pH 8.1): 657 Nm
- 1^00fl ([1]; HSA, pH 8.1): 669 nm
- absorption maximum wavelength (Qx 0-0 band) ([1]; HSA, pH 8.1): 664 Nm
- 1^00fl ([1]; Liposomes, pH 8.1): 670 nm
- absorption maximum wavelength (Qx 0-0 band) ([1]; Liposomes, pH 8.1): 665 Nm
- 1^00fl ([1]; Methanol): 667 nm
- absorption maximum wavelength (Qx 0-0 band) ([1]; Methanol): 662 Nm
- 1^00fl ([1]; Pyridine): 673 nm
- absorption maximum wavelength (Qx 0-0 band) ([1]; Pyridine): 666 Nm
- 1^00fl ([1]; Tetrahydrofuran): 673 nm
- absorption maximum wavelength (Qx 0-0 band) ([1]; Tetrahydrofuran): 667 Nm
- 1^00fl ([1]; Triton X-100, pH 8.1): 670 nm
- absorption maximum wavelength (Qx 0-0 band) ([1]; Triton X-100, pH 8.1): 665 Nm
- τt (life time in the triplet state) from singlet oxygen luminescence kinetics [2]: 2.0±0.2 microsec.
- τΔ (life time of singlet oxygen) from luminescence kinetics [2]: 3.6±0.2 microsec.
- inhibition of proliferation of Hela cells (HeLa cell culture; concentration of 5-10 mcg/ml, photoexposure): fully inhibited
- number of HELA cells (relative to the control) (HeLa cell culture; photoexposure 3.3 joule/cm^2, conc. 0.1 mcg/ml): 65.1
- number of HELA cells (relative to the control) (HeLa cell culture; photoexposure 3.3 joule/cm^2, conc. 0.5 mcg/ml): 42.3
- number of HELA cells (relative to the control) (HeLa cell culture; photoexposure 3.3 joule/cm^2, conc. 1.0 mcg/ml): 12.6
- number of HELA cells (relative to the control) (HeLa cell culture; photoexposure 3.3 joule/cm^2, conc. 5.0 mcg/ml): 0.1
